Results taken from US20120301551A1, “COMPOUNDS AND COMPOSITIONS FOR TREATING NEURONAL DEATH OR NEUROLOGICAL DYSFUNCTION” (Neurotech Pharmaceuticals Co., Ltd., priority 2005, published 2012).

How the values were obtained:
G93A transgenic mice = experiment: oxidative stress in lumbar spinal motor neurons of G93A transgenic mice (nitrotyrosine, MitoTracker); format: in vivo, mouse; settings: 30 mg/kg/d oral in diet from 8 weeks of age, at 10 weeks of age
From the text: D: Fluorescent photomicrographs of the lumbar ventral section immunolabeled with nitrotyrosine antibody from the wild type (a), or ALS transgenic mice treated with vehicle (b), or 2-hydroxy TTBA for 2 weeks starting from at age of 8 weeks (c). Arrows indicate motor neurons (top panel). Levels of nitrotyrosine were quantitated, mean±SEM (n=15 sections from 3 mice per each condition (bottom panel). p<0.05 using ANOVA and Student-Newman-Keuls test.
E: Same as D except measurement of the fluorescence intensity of oxidized MT red CM-H2XRos. p<0.05 using ANOVA and Student-Newman-Keuls test.
G93A transgenic mice received oral administration of 2-hydroxy-TTBA (30 mg/kg/d) in the diet from 8 weeks of age. The oral administration of 2-Hydroxy-TTBA blocked nitrotyrosine, and mitochondrial free radical increased in the lumbar spinal motor neurons at 10 weeks of age compared to the wild type (FIGS. 5D & 5E). […] Thus, cell necrosis and Fas-mediated apoptosis induced in G93A mice can be prevented by oral administration of 2-hydroxy-TTBA and Li^+.

[1] = DPPH free radical scavenging; format: biochemical
From the text: Free radical scavenging activity of chemical 01 was directly evaluated with 1,1-diphenyl-2-picrylhydrazil (DPPH, a stable free radical).

| Compound | nitrotyrosine and mitochondrial free radical increased in the lumbar spinal motor neurons (G93A transgenic mice) | IC50 [1] [µM] |
| --- | --- | --- |
| O=C(O)c1cc(NCc2c(F)c(F)c(C(F)(F)F)c(F)c2F)ccc1O [2-Hydroxy-TTBA, 2-hydroxy-5-(2,3,5,6-tetrafluoro-4-trifluoromethyl-benzylamino)-benzoic acid] | blocked | – |
| O=C(O)c1cc(NCCc2ccc(C(F)(F)F)cc2)ccc1O [chemical 01, 2-Hydroxy-5-[2-(4-trifluoromethyl-phenyl)-ethylamino]-benzoic acid] | – | 9.55 |
